Test results from ChEMBL document CHEMBL1944535, “Synthesis, in vitro binding studies and docking of long-chain arylpiperazine nitroquipazine analogues, as potential serotonin transporter inhibitors” (Eur J Med Chem, 2012).

What follows are compounds tested against Sodium-dependent serotonin transporter (Homo sapiens, UniProt P31645) (assay: Displacement of [3H]-5HT from human SERT).
Sequence of Sodium-dependent serotonin transporter (Homo sapiens, UniProt P31645) (P31645 whole entry): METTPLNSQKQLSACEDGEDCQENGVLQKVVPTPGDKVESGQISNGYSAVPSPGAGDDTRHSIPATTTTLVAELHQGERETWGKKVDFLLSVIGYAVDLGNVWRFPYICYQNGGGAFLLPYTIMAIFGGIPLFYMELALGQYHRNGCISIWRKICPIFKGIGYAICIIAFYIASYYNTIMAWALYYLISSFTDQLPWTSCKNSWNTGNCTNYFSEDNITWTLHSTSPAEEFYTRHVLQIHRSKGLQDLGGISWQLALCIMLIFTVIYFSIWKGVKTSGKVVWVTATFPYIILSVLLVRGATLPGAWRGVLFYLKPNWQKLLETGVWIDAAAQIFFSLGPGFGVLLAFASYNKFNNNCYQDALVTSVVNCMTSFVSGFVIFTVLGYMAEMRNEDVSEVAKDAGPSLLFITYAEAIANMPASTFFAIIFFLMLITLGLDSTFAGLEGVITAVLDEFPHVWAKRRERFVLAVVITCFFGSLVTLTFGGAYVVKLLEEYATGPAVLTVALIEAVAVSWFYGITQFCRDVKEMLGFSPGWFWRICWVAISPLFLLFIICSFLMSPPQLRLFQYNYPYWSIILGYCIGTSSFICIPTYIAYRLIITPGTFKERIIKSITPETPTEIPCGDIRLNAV

Structure (SMILES) | Ki [µM]
O=[N+]([O-])c1ccc2nc(N3CCNCC3)ccc2c1 [6-NITROQUIPAZINE] | 0.00017

What follows are compounds tested against Sodium-dependent serotonin transporter (Rattus norvegicus, UniProt P31652) (assay: Displacement of [3H]-Citalopram from SERT in rat cerebral cortex homogenates after 1 hr by liquid scintillation counter).
Sequence of Sodium-dependent serotonin transporter (Rattus norvegicus, UniProt P31652) (P31652 whole entry): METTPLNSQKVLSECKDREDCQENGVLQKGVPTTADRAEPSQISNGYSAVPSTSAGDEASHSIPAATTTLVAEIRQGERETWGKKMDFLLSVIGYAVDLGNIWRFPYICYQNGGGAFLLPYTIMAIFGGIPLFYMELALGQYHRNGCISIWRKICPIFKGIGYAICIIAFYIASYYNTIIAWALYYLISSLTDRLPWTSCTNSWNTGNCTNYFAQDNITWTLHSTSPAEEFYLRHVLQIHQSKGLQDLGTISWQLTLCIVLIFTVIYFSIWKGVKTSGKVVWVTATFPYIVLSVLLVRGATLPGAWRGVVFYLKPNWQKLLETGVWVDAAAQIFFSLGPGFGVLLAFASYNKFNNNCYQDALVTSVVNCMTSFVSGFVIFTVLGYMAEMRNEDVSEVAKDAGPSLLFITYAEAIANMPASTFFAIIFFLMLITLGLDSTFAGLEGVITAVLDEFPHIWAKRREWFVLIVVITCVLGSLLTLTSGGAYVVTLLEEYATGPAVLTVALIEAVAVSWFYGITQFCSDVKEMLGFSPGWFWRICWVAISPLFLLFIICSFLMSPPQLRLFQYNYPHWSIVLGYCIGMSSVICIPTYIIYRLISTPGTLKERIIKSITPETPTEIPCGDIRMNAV
Type: tissue-based

Structure (SMILES) | IC50 [µM]
O=C1CC2(CCCC2)CC(=O)N1CCCCN1CCN(c2ccc3cc([N+](=O)[O-])ccc3n2)CC1 | 25.9
CC(=O)Nc1ccc2nc(N3CCN(CCCCN4C(=O)CC5(CCCC5)CC4=O)CC3)ccc2c1 | 18.8
O=C1CCCC(=O)N1CCCCN1CCN(c2ccc3cc([N+](=O)[O-])ccc3n2)CC1 | 0.921
O=C1c2ccccc2C(=O)N1CCCCN1CCN(c2ccc3cc([N+](=O)[O-])ccc3n2)CC1 | 4.13
CC1CN(c2ccc3cc([N+](=O)[O-])ccc3n2)CCN1CCCCN1C(=O)CC2(CCCC2)CC1=O (stereo unspecified) | 1.35
CC1(C)CC(=O)N(CCCCN2CCN(c3ccc4c(Cl)cccc4n3)CC2)C(=O)C1 | 2.8

The remaining lines, values ahead:

IC50 [µM] | Structure (SMILES)
0.171 | CC1CN(c2ccc3ccccc3n2)CCN1CCCCN1C(=O)CC(C)(C)CC1=O (stereo unspecified)
0.807 | CC1CN(c2ccc3cc([N+](=O)[O-])ccc3n2)CCN1CCCCN1C(=O)CC(C)(C)CC1=O (stereo unspecified)
0.616 | CC1(C)CC(=O)N(CCCCN2CCN(c3ccc4cc([N+](=O)[O-])ccc4n3)CC2)C(=O)C1
0.268 | CC1CN(c2ccc3cc([N+](=O)[O-])ccc3n2)CCN1CCCCN1C(=O)CCCC1=O (stereo unspecified)
